Patent publication US12172941B2, “Organic compound and organic light-emitting device” (CANON KABUSHIKI KAISHA, priority 2020, dated 2024)

Tests used:
Assay type in all cases: physicochemical
[1] = Photoluminescence emission spectrum of toluene solution (F-4500); conditions: toluene solution 1×10^−5 mol/l, room temperature, excitation 350 nm
Experimental: The measurement was performed by measuring photoluminescence with F-4500 manufactured by Hitachi, Ltd. at room temperature and at an excitation wavelength of 350 nm.

[2] = Absolute PL quantum yield in solution (C9920-02); conditions: room temperature, relative value
[3] = Difference between decomposition temperature (TG/DTA) and sublimation temperature; conditions: decomposition: 5% weight loss in TG/DTA; sublimation: vacuum 1×10^−1 Pa, Ar flow
Text: The decomposition temperature is a temperature at which the weight loss reaches 5% in TG/DTA measurement. […] In the toluene solubility test performed in a nitrogen atmosphere under reflux by heating while stirring, dissolution was visually inspected and was expressed as a relative value with respect to the amount of toluene (1.0) used to completely dissolve the exemplary compound A1.

Compound	λmax [1]	Quantum yield ([2]; exemplary compound D2 = 1.00)	Emission wavelength max [1]	Quantum yield ([2]; exemplary compound A17 = 1.00)	Decomposition temperature-sublimation temperature [3]
Cc1ccc(-c2cc3c4cc5c(cc4c(-c4ccc(C)cc4)cc3c3cc4c(cc23)-c2cc3ccccc3c3cccc-4c23)-c2cc3ccccc3c3cccc-5c23)cc1 [Exemplary compound D2]	453	1.00	–	–	–
c1ccc(-c2cc3c4cc5c(cc4c(-c4ccccc4)cc3c3cc4c(cc23)-c2cccc3cccc-4c23)-c2cccc3cccc-5c23)cc1 [Comparative compound (1)]	449	0.95	449	0.95	–
c1ccc(-c2c3c(c(-c4ccccc4)c4c2ccc2c5cc6c(cc5ccc24)-c2cccc4cccc-6c24)-c2cccc4cccc-3c24)cc1 [Comparative compound (2)]	–	–	–	–	70 °C
c1ccc(-c2c3c(c(-c4ccccc4)c4c2ccc2c5cc6c(cc5ccc24)-c2cccc4cccc-6c24)-c2cc4ccccc4c4cccc-3c24)cc1 [Exemplary compound A1]	–	–	–	–	90 °C
c1ccc(-c2cc3c4cc5c(cc4c(-c4ccccc4)cc3c3cc4c(cc23)-c2cccc3cccc-4c23)-c2cccc3c2c-5cc2ccccc23)cc1 [Exemplary compound A17]	–	–	449	1.00	–
